Holding throughout (type): cell-based, human
The subject of assay [1] is CD8+ T cell subsets and PBMC from melanoma patients. Description: Fold expansion of MART-1 TCR transduced cultures. The settings on record: IL2, day 13-15 after stimulation. The text has this: CD8^+ T cell subsets from freshly isolated PBMC from melanoma patients were isolated and the stimulated with coated CD3 plus soluble CD28 (CD3+CD28 in the graph) or with CD3/CD28/CD2 coated MACSiBeads (MACSiBeads in the graph) or with CD3/CD28 Nanomatrix in the presence of IL2. After 2 days of stimulation cells have been transduced to express MART-1 TCR. In the graph is reported the fold expansion of each culture at day 13-15 after stimulation.
One important application for activating and expanding T cells and in particular purified cell subsets is their genetic manipulation, e.g. to introduce a certain antigen receptor with specificity for tumor antigens. We have used nanomatrices to activate purified naïve (TN, CD62L+CD45RA+), central memory (TCM, CD62L+CD45RA−) and effector (TEM, CD62L−CD45RA−) T cells and transduced them using a retroviral vector expressing a TCR specific for MART-1, a tumor antigen. To test the relative frequency of transgene expression in these T cell subsets we performed MHC-peptide Class I tetramer staining. All T cell subsets are efficiently transduced (>50%) independent on the stimulatory conditions we tested (FIG. 7). We also compared the in vitro expansion of the transduced T cells. As shown in FIG. 8 after 10 days we observed no differences with regard to expansion of the three subsets under all conditions. […]

Assay [2] has as its system naive CD4 and CD8 T cells. As to the kind of experiment: Induction of early activation markers CD25/CD69, soluble versus nanomatrix-conjugated CD3. As to the method: (§1) FIG. 6: Comparison of soluble CD3 or CD28 antibodies to CD3 or CD28 antibodies conjugated to nanomatrices. Naive CD4 and CD8 T cells were isolated and stimulated in vitro in the presence of IL-2 using soluble CD3 (0-10000 ng/mL) w/o CD28 (A) or in the presence of soluble CD28 (200 ng/ml) (B) and compared to CD28 conjugated to nanomatrix (200 ng/ml) and analysed for early activation markers CD25/CD69 on day 5 or for expansion (C) on day 7. 2 donors were analysed in duplicates.
IL-2 was added to all cultures. […] In contrast the CD3 coated nanomatrix (100 ng/ml CD3) induced CD25/CD69 expression in 40-70% of the cells.

Another assay has as its system naive T cells. Description: Expansion of naive T cells, soluble versus nanomatrix-conjugated CD28 in presence of soluble CD3. Conditions: soluble CD3 alone, day 7. As to the method: as §1
We also tested the effect of conjugation of CD28 antibodies to the nanomatrix. Since the effects of costimulation are best visualized under suboptimal CD3 stimulation, we titrated CD28 either soluble or conjugated to the nanomatrix in the presence of soluble CD3 to a culture of naïve T cells. […] In the presence of soluble CD28 however a 2-6 fold expansion was detectable but only at the highest tested dose of CD28 (10000 ng/ml).

In turn, “soluble CD3: soluble anti-CD3 antibody (CD3 antibodies, clone OKT3)” gave a fold expansion in assay [1] of 57.61±17.75. In addition, in assay [2] (10-10000 ng/ml, without CD28, IL-2, day 5), the “up-regulation of early activation markers CD25 and CD69” value is “did not induce any significant up-regulation”. In addition, in assay [2] (highest tested doses 100-10000 ng/ml, with soluble CD28 200 ng/ml, IL-2, day 5), the CD25/CD69 expression is given as 20-40 % of the cells. In the assay with naive T cells, the “expansion of naive T cells” value is “did not induce any expansion”.
